Several values for one entry are separate records, joined by “and”; a condition that tells them apart may be missing. Equal entries are not always repeated. Where two headings read alike, the source gives them in different places.
Experiments:
[1] = system: African green monkey kidney epithelial (Vero) cell line; assay: MTS antiproliferative (cytotoxicity) assay, Vero (reference); assay type: cell-based; settings: Chlorocebus sabaeus, Vero
Experimental: (§1) The cytotoxicity of synthesized 3-azaspiro[bicyclo[3.1.0]hexane-2,5′-pyrimidines] 4 against human erythroleukemia (K562), cervical carcinoma (HeLa), and T lymphocyte (Jurkat), as well as mouse colon carcinoma (CT26) and African green monkey kidney epithelial (Vero) cell lines as reference, was evaluated in vitro by the standard MTS assay for 24 and 72 h.
(§2) All the cell lines (human cervical carcinoma (HeLa), erythroleukemia (K-562), and T lymphocyte (Jurkat) as well as mouse colon carcinoma (CT26) and African green monkey kidney epithelial (Vero)) were obtained from the cell repository “Vertebrate cell culture collection” (supported by the Ministry of Science and Higher Education of the Russian Federation, agreement №075-15-2021-683, Institute of Cytology, Russian Academy of Sciences, Saint Petersburg, Russia). HeLa, Jurkat, and Vero cells were cultured in DMEM (HyClone, South Logan, UT, USA) supplemented with 10% (v/v) fetal bovine serum (Hyclone, GE Healthcare Life Sciences, Logan, UT, USA), and gentamicin (Sigma-Aldrich, St. Louis, MO, USA) at 37 °C in a humidified atmosphere with 5% CO2. K-562 and CT26 cells were grown at RPMI medium (Hyclone, GE Healthcare Life Sciences, Logan, UT, USA), with the same supplements and conditions.
(§3) To evaluate the in vitro toxicity of compounds synthesized, cells were seeded into 96-well plates at a density of 5 × 10^3 cells per well. On the next day, tested compounds were added to the wells at concentrations ranging from […], followed by incubation for 1 and 3 days. Cell proliferation was determined by adding 20 μL of MTS reagent (BioVision, Milpitas, CA, USA) stock solution per well. Each plate was incubated for 2 h at 37 °C in a humidified, 5% CO2 atmosphere. The plates were then read at 495 nm using plate spectrophotometer (Multiskan GO, Thermo Fisher Scientific, Waltham, MA, USA). All samples were measured in triplicates.

CT26 cells [2] = assay: Annexin V-FITC/DAPI cell death analysis, CT26; assay type: cell-based, mouse; settings: CT26, 10 μg/mL, 72 h; for Necrotic Cells, %: control 0.0 ± 0.0; for Late Apoptotic Cells, %: control 0.9 ± 0.4; for Early Apoptotic Cells, %: control 10.5 ± 0.7; for Live Cells, %: control 88.5 ± 1.1
Experimental: (§4) The results of cell death detection after the exposure of the HeLa and CT26 cell lines to spiro-fused cycloadducts 4c–i at a dose of 10 μg/mL for 72 h, using Annexin V-FITC/DAPI staining, are shown in Figure 6 and Figure 7, respectively.
(§5) Cells were seeded in 24-well plates, 5 × 10^4 cells per well. After 24 h incubation, cells were treated with compounds 4c–i for 72 h. Then, cells were washed, harvested by trypsinisation, stained with Annexin V-FITC ([…]) and DAPI (Thermo Fisher Scientific, Waltham, MA, USA), in accordance with the protocol of the manufacturer, and analyzed by flow cytometry. The proapoptotic effect of azaspiro[bicyclo[3.1.0]hexane-2,5′-pyrimidines] 4c–i was evaluated by an Annexin V-FITC/DAPI (AV/DAPI) dual-staining assay to examine the occurrence of phosphatidylserine externalization, which facilitated the detection of live cells (lower-left quadrant; AV−/DAPI−), early apoptotic cells (upper-left quadrant; AV+/DAPI−), late apoptotic cells (upper-right quadrant; AV+/DAPI+), and necrotic cells (lower-right quadrant; AV−/DAPI+).

[3] = system: human cervical carcinoma (HeLa) cell line; assay: MTS antiproliferative (cytotoxicity) assay, HeLa; assay type: cell-based; settings: HeLa; for SI (selectivity index), HeLa: Vero as reference cell line; for IC50: Homo sapiens
Experimental: as §1, §2, §3

HeLa cells [4] = assay: Cell cycle distribution by flow cytometry (propidium iodide), HeLa; assay type: cell-based, human; settings: for SubG1 (%) / G2/M (%) / S (%) / G0/G1 (%): HeLa, 10 μg/mL, 24 h; for SubG1 (%): control 2.3 ± 0.4; for G2/M (%): control 12.2 ± 1.3; for S (%): control 12.5 ± 1.7; for G0/G1 (%): control 73.1 ± 2.6
Experimental: (§6) One of the indicators of the influence of biologically active products on the cells is the changed distribution of cells during different stages of the cell cycle. In this work, recently synthesized compounds were tested using flow cytometry for their effect on the distribution of cells in the cell cycle (G0/G1, G2/M, and S). Figure 8, Figure 9 and Figure 10 and Table 3 show the typical data after processing the results from three replicates of each experiment.
(§7) The distribution of HeLa and CT26 cells in the G0/G1-, S-, and G2/M-phases of the cell cycle was obtained by quantification of DNA content in propidium-iodide-stained cells using flow cytometry. Briefly, cells were seeded in 24-well plates at a density of 5 × 10^4 cells per well. After 24 h incubation, cells were exposed to 10 μg/mL of compounds 4c–i (the structure is provided in Scheme 1) for 24 h. The effects of compounds 4d, 4e, 4g, 4h were additionally tested at concentrations of 2 and 5 μg/mL. After incubation with drugs, the cells were detached by exposure to trypsin-EDTA for 5 min at 37 °C and then collected by pipetting. This was followed by treatment with 0.2 mg/mL saponin (Fluka, Waltham, MA, USA), 0.25 mg/mL RNase (Sigma-Aldrich, St. Louis, MO, USA), and 0.05 mg/mL propidium iodide (Invitrogen, Carlsbad, CA, USA). After washing, the samples were analyzed by standard flow cytometer (BD FACSCanto II, Becton Dickinson, San Jose, CA, USA). Then, 10,000 events were acquired for the sample. Data processing was performed using BD FACSDiva 9.0 software.

CT26 cells [5] = assay: Cell cycle distribution by flow cytometry (propidium iodide), CT26; assay type: cell-based, mouse; settings: for SubG1 (%) / G2/M (%) / S (%) / G0/G1 (%): CT26, 10 μg/mL, 24 h; for SubG1 (%): control 3.6 ± 0.6; for G2/M (%): control 12.3 ± 0.9; for S (%): control 40.1 ± 1.5; for G0/G1 (%): control 44.0 ± 1.7; for cytostatic effect (cell cycle), CT26: CT26 cell line
Experimental: as §6, §7

HeLa cells [6] = assay: Annexin V-FITC/DAPI cell death analysis, HeLa; assay type: cell-based, human; settings: 10 μg/mL, 72 h; for Necrotic Cells, %: control 0.5 ± 0.3; for Early Apoptotic Cells, %: control 4.5 ± 0.7; for Live Cells, %: control 89.0 ± 0.7; for Late Apoptotic Cells, %: control 5.9 ± 0.4
Experimental: as §4, §5

[7] = system: human erythroleukemia (K562) cell line; assay: MTS antiproliferative (cytotoxicity) assay, K562; assay type: cell-based; settings: for IC50: Homo sapiens; for SI (selectivity index), K562: Vero as reference cell line
Experimental: as §1, §2, §3

[8] = system: mouse colon carcinoma (CT26) cell line; assay: MTS antiproliferative (cytotoxicity) assay, CT26; assay type: cell-based; settings: for SI (selectivity index), CT26: Vero as reference cell line; for IC50: Mus musculus
Experimental: as §1, §2, §3

[9] = 24 h, read-out: IC50, Vero, 24 h
[10] = 72 h, read-out: IC50, Vero, 72 h
[11] = 24 h, read-out: IC50, HeLa, 24 h
[12] = 72 h, read-out: IC50, HeLa, 72 h
[13] = K562, 24 h, read-out: IC50, K562, 24 h
[14] = K562, 72 h, read-out: IC50, K562, 72 h
[15] = CT26, 24 h, read-out: IC50, CT26, 24 h
[16] = CT26, 72 h, read-out: IC50, CT26, 72 h

SMILES | IC50 [1, 9] | IC50 [1, 10] | Necrotic Cells, % (CT26 cells [2]) | Late Apoptotic Cells, % (CT26 cells [2]) | Early Apoptotic Cells, % (CT26 cells [2]) | Live Cells, % (CT26 cells [2]) | SI (selectivity index), HeLa [3] | IC50 [3, 11] | IC50 [3, 12] | SubG1 (%) (HeLa cells [4]) | G2/M (%) (HeLa cells [4]) | S (%) (HeLa cells [4]) | G0/G1 (%) (HeLa cells [4]) | SubG1 (%) (CT26 cells [5]) | G2/M (%) (CT26 cells [5]) | S (%) (CT26 cells [5]) | G0/G1 (%) (CT26 cells [5]) | Necrotic Cells, % (HeLa cells [6]) | Early Apoptotic Cells, % (HeLa cells [6]) | Live Cells, % (HeLa cells [6]) | also measured
CC[C@@H]1NC2(C(=O)NC(=O)NC2=O)[C@]2(c3ccccc3)[C@@H](c3ccccc3)[C@]12c1ccccc1 [Compound 4c] | 47 ± 11 µM | 16 ± 2 µM | 1.8 ± 0.8 % | 6.4 ± 1.0 % | 1.9 ± 0.3 % | 89.8 ± 0.5% | 1.3 | 21 ± 2 µM | 13 ± 2 µM | 8.1 ± 1.9 % | 11.0 ± 1.5% | 17.6 ± 1.2 % | 63.3 ± 2.2 % | 2.0 ± 0.4 % | 13.2 ± 2.9 % | 16.3 ± 1.7 % | 68.5 ± 3.0 % | 2.2 ± 0.5 % | 5.6 ± 1.3% | 81.0 ± 4.4 % | rate of cell death in HeLa vs control (HeLa cells [6]): not different from the control; IC50 [7, 13]: 12 ± 2 µM; IC50 [7, 14]: 5 ± 2 µM; SI (selectivity index), K562 [7]: 3.2; SI (selectivity index), CT26 [8]: 0.8; IC50 [8, 15]: 27 ± 2 µM; IC50 [8, 16]: 20 ± 2 µM
CCC[C@@H]1NC2(C(=O)NC(=O)NC2=O)[C@]2(c3ccccc3)[C@@H](c3ccccc3)[C@]12c1ccccc1 [Compound 4d] | 48 ± 4 µM | 16 ± 2 µM | 1.1 ± 0.3 % | 56.4 ± 2.4 % | 9.6 ± 0.5% | 32.8 ± 3.0 % | 1.1 | 17 ± 2 µM | 15 ± 2 µM | 18.1 ± 1.0 % | 8.4 ± 1.5 % | 15.5 ± 1.1 % | 58.0 ± 4.4 % | 12.2 ± 1.1 % | 17.9 ± 0.6 % | 34.4 ± 2.3 % | 35.6 ± 1.0 % | 3.6 ± 1.8 % | 11.6 ± 0.2 % | 46.8% and 46.8 ± 18.4 % | cytostatic effect (cell cycle), CT26 (CT26 cells [5]): best effect; Late Apoptotic Cells, % (HeLa cells [6]): 38.1 ± 16.8 %; IC50 [7, 13]: 21 ± 4 µM; IC50 [7, 14]: 9 ± 2 µM; SI (selectivity index), K562 [7]: 1.8; SI (selectivity index), CT26 [8]: 1.3; IC50 [8, 15]: 17 ± 2 µM; IC50 [8, 16]: 13 ± 2 µM
CCCC[C@@H]1NC2(C(=O)NC(=O)NC2=O)[C@]2(c3ccccc3)[C@@H](c3ccccc3)[C@]12c1ccccc1 [Compound 4e] | 23 ± 2 µM | 10 ± 2 µM | 1.4 ± 0.1 % | 61.6 ± 0.5 % | 23.4 ± 0.8 % | 13.5% and 13.5 ± 0.4 % | 0.8 | 13 ± 2 µM | 13 ± 4 µM | 34.4 ± 5.8 % | 5.7 ± 0.9 % | 16.7 ± 1.2 % | 43.1 ± 1.4 % | 19.3 ± 5.1 % | 14.1 ± 9.4% | 28.5 ± 1.8 % | 38.1 ± 6.4 % | 5.6 ± 2.6 % | 18.1 ± 3.1 % | 15.0% and 15.0 ± 2.7 % | cytostatic effect (cell cycle), HeLa (HeLa cells [4]; HeLa cell line): strongest cytostatic effect; cytostatic effect (cell cycle), CT26 (CT26 cells [5]): best effect; Late Apoptotic Cells, % (HeLa cells [6]): 61.3 ± 3.8 %; IC50 [7, 13]: 17 ± 2 µM; IC50 [7, 14]: 4 ± 2 µM; SI (selectivity index), K562 [7]: 2.5; SI (selectivity index), CT26 [8]: 1.7; IC50 [8, 15]: 10 ± 2 µM; IC50 [8, 16]: 6 ± 2 µM
CC(C)C[C@@H]1NC2(C(=O)NC(=O)NC2=O)[C@]2(c3ccccc3)[C@@H](c3ccccc3)[C@]12c1ccccc1 [Compound 4f] | 48 ± 6 µM | 10 ± 2 µM | 1.9 ± 0.5 % | 57.8 ± 3.1 % | 6.2 ± 1.2 % | 34.1 ± 3.8 % | 0.5 | 19 ± 2 µM | 23 ± 6 µM | 10.5 ± 2.0 % | 12.8 ± 1.3% | 15.2 ± 1.2 % | 61.5 ± 3.3 % | 24.9 ± 5.2 % | 13.5 ± 0.9 % | 31.9 ± 2.6 % | 29.7 ± 1.4 % | 2.1 ± 1.3 % | 2.9 ± 0.1 % | 90.9 ± 1.6% | cytostatic effect (cell cycle), CT26 (CT26 cells [5]): best effect; rate of cell death in HeLa vs control (HeLa cells [6]): not different from the control; Late Apoptotic Cells, % (HeLa cells [6]): 4.1 ± 0.5 %; IC50 [7, 13]: 17 ± 4 µM; IC50 [7, 14]: 6 ± 2 µM; SI (selectivity index), K562 [7]: 1.7; SI (selectivity index), CT26 [8]: 1.0; IC50 [8, 15]: 17 ± 2 µM; IC50 [8, 16]: 10 ± 2 µM

From article PMC9506420, “Biological Evaluation of 3-Azaspiro[Bicyclo[3.1.0]Hexane-2,5′-Pyrimidines] as Potential Antitumor Agents” (International Journal of Molecular Sciences, 2022)
